US8557813B2, “2-benzylpyridazinone derivatives as met kinase inhibitors” (Merck Patent GmbH, priority 2007, dated 2013)
Where a name gives a salt, the structure may show the parent alone.

Key:
Met kinase [1] = target: T1, Met kinase (Homo sapiens, UniProt P08581); assay: Met kinase inhibition, cell assay; format: cell-based
Met kinase [2] = target: T1, Met kinase; assay: Met kinase inhibition, enzyme assay (flashplate method); format: biochemical; parameters: 6His (N); purchased Upstate 14-526; host or cells: Sf21 insect cells (S. frugiperda), baculovirus
From the text: According to the manufacturer's data (Met, active, upstate, catalogue No. 14-526), Met kinase is expressed for the purposes of protein production in insect cells (Sf21; S. frugiperda) and subsequent affinity-chromatographic purification as “N-terminal 6His-tagged” recombinant human protein in a baculovirus expression vector.
The test plates used are 96-well Flashplate® microtitre plates from Perkin Elmer (Cat. No. SMP200). The components of the kinase reaction described below are pipetted into the assay plate. The Met kinase and the substrate poly Ala-Glu-Lys-Tyr, (pAGLT, 6:2:5:1), are incubated for 3 hrs at room temperature with radioactively labelled ^33P-ATP in the presence and absence of test substances in a total volume of 100 μl. The reaction is terminated using 150 μl of a 60 mM EDTA solution. After incubation for a further 30 min at room temperature, the supernatants are filtered off with suction, and the wells are washed three times with 200 μl of 0.9% NaCl solution each time. The measurement of the bound radioactivity is carried out by means of a scintillation measuring instrument (Topcount NXT, Perkin-Elmer).
The full value used is the inhibitor-free kinase reaction. This should be approximately in the range 6000-9000 cpm. The pharmacological zero value used is staurosporin in a final concentration of 0.1 mM. The inhibitory values (IC50) are determined using the RS1_MTS program.
Kinase Reaction Conditions Per Well:
10 μl of substance to be tested in assay buffer with 10% of DMSO
10 μl of ATP (final concentration 1 μM cold, 0.35 μCi of ^33P-ATP)
50 μl of Met kinase/substrate mixture in assay buffer; • (10 ng of enzyme/well, 50 ng of pAGLT/well) • Solutions Used: • Assay buffer: • 50 mM HEPES • 3 mM magnesium chloride • 3 μM sodium orthovanadate • 3 mM manganese(II) chloride • 1 mM dithiothreitol (DTT) • pH=7.5 (to be set using sodium hydroxide) • Stop Solution: • 60 mM Titriplex III (EDTA) • ^33P-ATP: Perkin-Elmer; • Met kinase: Upstate, Cat. No. 14-526, Stock 1 μg/10 μl; spec. activity 954 U/mg; • Poly-Ala-Glu-Lys-Tyr, 6:2:5:1: Sigma Cat. No. P1152

TPR-Met/NIH3T3 cells = assay: In-vivo test, TPR-Met/NIH3T3 tumor model in mice; conditions: female Balb/C mice, s.c. TPR-Met/NIH3T3 tumors, 200 mg/kg daily by gastric tube, 9 days, tumor volume
Protocol: Experimental Procedure: Female Balb/C mice (breeder: Charles River Wiga) were 5 weeks old on arrival. They were acclimatized to our keeping conditions for 7 days. Each mouse was subsequently injected subcutaneously in the pelvic area with 4 million TPR-Met/NIH3T3 cells in 100 μl of PBS (without Ca++ and Mg++). […] 100 μl of vehicle (0.25% methylcellulose/100 mM acetate buffer, pH 5.5) were administered daily to the control group, and 200 mg/kg of “A56” or “A91” dissolved in the vehicle (volume likewise 100 μl/animal) were administered daily to the treatment groups, in each case by gastric tube.
Measurement of the tumor volume: The length (L) and breadth (B) were measured using a Vernier calliper, and the tumor volume was calculated from the formula L×B×B/2.
Keeping conditions: 4 or 5 animals per cage, feeding with commercial mouse food (Sniff).

T1 sequence (P08581 25-1390): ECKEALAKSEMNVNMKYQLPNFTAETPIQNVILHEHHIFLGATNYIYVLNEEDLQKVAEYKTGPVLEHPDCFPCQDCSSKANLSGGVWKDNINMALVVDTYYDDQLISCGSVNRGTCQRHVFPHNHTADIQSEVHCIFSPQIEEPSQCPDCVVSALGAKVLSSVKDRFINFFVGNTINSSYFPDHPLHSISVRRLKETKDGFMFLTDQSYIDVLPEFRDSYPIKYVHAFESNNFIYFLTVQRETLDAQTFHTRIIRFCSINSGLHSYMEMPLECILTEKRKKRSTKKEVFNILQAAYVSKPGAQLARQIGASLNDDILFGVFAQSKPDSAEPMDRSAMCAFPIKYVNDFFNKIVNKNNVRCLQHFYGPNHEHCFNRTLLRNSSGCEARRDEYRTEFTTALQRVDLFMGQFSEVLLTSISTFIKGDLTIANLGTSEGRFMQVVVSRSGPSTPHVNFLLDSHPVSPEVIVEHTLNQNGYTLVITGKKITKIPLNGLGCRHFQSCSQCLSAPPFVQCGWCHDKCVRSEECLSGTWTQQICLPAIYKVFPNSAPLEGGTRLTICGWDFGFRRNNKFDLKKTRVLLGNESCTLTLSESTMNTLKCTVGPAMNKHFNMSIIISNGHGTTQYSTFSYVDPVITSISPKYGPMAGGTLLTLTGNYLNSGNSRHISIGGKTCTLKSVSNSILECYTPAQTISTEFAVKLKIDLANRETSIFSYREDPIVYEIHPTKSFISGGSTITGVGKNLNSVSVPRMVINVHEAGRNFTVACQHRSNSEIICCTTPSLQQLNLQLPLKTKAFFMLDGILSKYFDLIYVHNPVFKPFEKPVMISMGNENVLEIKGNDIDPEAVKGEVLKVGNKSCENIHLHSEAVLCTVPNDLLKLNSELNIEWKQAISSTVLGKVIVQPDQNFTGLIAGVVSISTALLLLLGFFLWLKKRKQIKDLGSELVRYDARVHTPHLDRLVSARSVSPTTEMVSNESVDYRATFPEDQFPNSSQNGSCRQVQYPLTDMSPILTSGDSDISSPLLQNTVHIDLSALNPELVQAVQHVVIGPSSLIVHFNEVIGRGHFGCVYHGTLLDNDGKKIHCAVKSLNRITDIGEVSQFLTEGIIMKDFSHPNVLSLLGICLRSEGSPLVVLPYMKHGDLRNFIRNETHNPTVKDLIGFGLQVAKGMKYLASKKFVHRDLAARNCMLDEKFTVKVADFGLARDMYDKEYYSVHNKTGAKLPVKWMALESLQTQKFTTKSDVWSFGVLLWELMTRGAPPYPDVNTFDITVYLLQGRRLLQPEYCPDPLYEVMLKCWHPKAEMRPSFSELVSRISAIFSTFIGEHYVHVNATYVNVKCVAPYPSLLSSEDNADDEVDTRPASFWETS

Row | IC50 (Met kinase [1]) [nM] | IC50 (Met kinase [2]) [nM] | Compound | antitumoral action (TPR-Met/NIH3T3 cells)
1 | 100 to 10000 | 1 to 100 | O=c1ccc(C2CC2)nn1Cc1cccc(-c2ncc(Br)cn2)c1 [Compound A1, 2-[3-(5-bromopyrimidin-2-yl)benzyl]-6-cyclopropyl-2H-pyridazin-3-one] | –
2 | 100 to 10000 | 1 to 100 | O=c1cccnn1Cc1cccc(-c2ncc(-c3cnn(CCN4CCOCC4)c3)cn2)c1 [Compound A14, 2-(3-{5-[1-(2-morpholin-4-ylethyl)-1H-pyrazol-4-yl]pyrimidin-2-yl}benzyl)-2H-pyridazin-3-one] | –
3 | 1 to 100 | 1 to 100 | CN1CCC(Oc2cnc(-c3cccc(Cn4nc(C5CC5)ccc4=O)c3)nc2)CC1 [Compound A9, 6-cyclopropyl-2-{3-[5-(1-methylpiperidin-4-yloxy)pyrimidin-2-yl]benzyl}-2H-pyridazin-3-one] | –
4 | 100 to 10000 | 1 to 100 | Cc1ccc(=O)n(Cc2cccc(-c3ncc(-c4cnn(C5CCNCC5)c4)cn3)c2)n1 [Compound A6, 6-methyl-2-{3-[5-(1-piperidin-4-yl-1H-pyrazol-4-yl)pyrimidin-2-yl]benzl}-2H-pyridazin-3-one] | –
5 | > 10000 | 100 to 10000 | Cc1nc(-c2cccc(Cn3nc(C4CC4)ccc3=O)c2)no1 [Compound A7, 6-cyclopropyl-2-[3-(5-methyl-1,2,4-oxadiazol-3-yl)benzyl]-2H-pyridazin-3-one] | –
6 | 1 to 100 | 1 to 100 | O=c1ccc(C2CC2)nn1Cc1cccc(-c2ncc(-c3cnn(C4CCNCC4)c3)cn2)c1 [Compound A5, 6-cyclopropyl-2-{3-[5-(1-piperidin-4-yl-1H-pyrazol-4-yl)-pyrimidin-2-yl]benzyl}-2H-pyridazin-3-one] | –
7 | 1 to 100 | 1 to 100 | O=c1ccc(C2CCC2)nn1Cc1cccc(-c2ncc(-c3cnn(CCN4CCCC4)c3)cn2)c1 [Compound A15, 6-cyclobutyl-2-(3-{5-[1-(2-pyrrolidin-1-ylethyl)-1H-pyrazol-4-yl]pyrimidin-2-yl}benzyl)-2H-pyridazin-3-one] | –
8 | 100 to 10000 | 1 to 100 | Cc1cnc(-c2cccc(Cn3nc(C4CC4)ccc3=O)c2)nc1 [Compound A4, 6-cyclopropyl-2-[3-(5-methylpyrimidin-2-yl)benzyl]-2H-pyridazin-3-one] | –
9 | 1 to 100 | 1 to 100 | CN(C)CCCOc1cnc(-c2cccc(Cn3nc(C4CC4)ccc3=O)c2)nc1 [Compound A8, 6-cyclopropyl-2-{3-[5-(3-dimethylaminopropoxy)pyrimidin-2-yl]benzyl}-2H-pyridazin-3-one] | –
10 | 100 to 10000 | 1 to 100 | O=c1ccc(C2CC2)nn1Cc1cccc(-c2ncc(OC3CCNCC3)cn2)c1 [Compound A11, 6-cyclopropyl-2-{3-[5-(piperidin-4-yloxy)pyrimidin-2-yl]benzyl}-2H-pyridazin-3-one] | –
11 | 1 to 100 | 1 to 100 | CN1CCN(c2cnc(-c3cccc(Cn4nc(C5CC5)ccc4=O)c3)nc2)CC1 [Compound A12, 6-cyclopropyl-2-{3-[5-(4-methylpiperazin-1-yl)pyrimidin-2-yl]benzyl}-2H-pyridazin-3-one] | –
12 | 100 to 10000 | 1 to 100 | CC(C)c1ccc(=O)n(Cc2cccc(-c3ncc(-c4cnn(CCN5CCOCC5)c4)cn3)c2)n1 [Compound A13, 6-isopropyl-2-(3-{5-[1-(2-morpholin-4-ylethyl)-1H-pyrazol-4-yl]pyrimidin-2-yl}benzyl)-2H-pyridazin-3-one] | –
13 | 100 to 10000 | 1 to 100 | CC(C)c1ccc(=O)n(Cc2cccc(-c3ncc(OCCCN(C)C)cn3)c2)n1 [Compound A10, 2-{3-[5-(3-dimethylaminopropoxy)pyrimidin-2-yl]benzyl}-6-isopropyl-2H-pyridazin-3-one formate] | –
14 | 100 to 10000 | 100 to 10000 | Nc1cnc(-c2cccc(Cn3nc(C4CC4)ccc3=O)c2)nc1 [Compound A18, 2-[3-(5-aminopyrimidin-2-yl)benzyl]-6-cyclopropyl-2H-pyridazin-3-one] | significant antitumoral action
15 | 1 to 100 | 1 to 100 | O=c1ccc(C2CC2)nn1Cc1cccc(-c2ncc(-c3cnn(CCN4CCOCC4)c3)cn2)c1 [Compound A3, 6-cyclopropyl-2-(3-{5-[1-(2-morpholin-4-ylethyl)-1H-pyrazol-4-yl]-pyrimidin-2-yl}benzyl)-2H-pyridazin-3-one] | –
16 | 1 to 100 | 1 to 100 | O=c1ccc(C2CC2)nn1Cc1cccc(-c2ncc(-c3cnn(CCN4CCCC4)c3)cn2)c1 [Compound A2, 6-cyclopropyl-2-(3-{5-[1-(2-pyrrolidin-1-ylethyl)-1H-pyrazol-4-yl]pyrimidin-2-yl}benzyl)-2H-pyridazin-3-one] | –
